These results are taken from ChEMBL document CHEMBL1157539, “Thousands of chemical starting points for antimalarial lead identification” (Nature, 2010).

In the assay the test system is Plasmodium falciparum. Description: GSK_TCMDC: Inhibition of Plasmodium falciparum 3D7 in whole erythrocytes, using parasite LDH activity as an index of growth. Format: functional, organism-based. The conditions noted are these: Plasmodium falciparum, 3D7.
Turning to `COc1cccc2c(N/N=C/c3ccc([N+](=O)[O-])cc3)ccnc12`, the XC50 stood at 888 nM.
With `CCN(CC)CCN(Cc1ccc(-c2ccc(C(F)(F)F)cc2)nc1)C(=O)Cn1cc(Cc2cnn(C)c2)c(=O)n2nc(-c3ccccc3)cc12` the figure was 991 nM.
Regarding `CCN(CC)CCN(Cc1ccc(-c2ccc(C(F)(F)F)cc2)cc1)C(=O)Cn1c(CCc2cc(F)cc(F)c2F)nc(=O)c2ccccc21`, the XC50 amounted to 756 nM.
In the case of `CC(=O)Nc1ccc(Nc2c3ccccc3nc3ccccc23)cc1` it was 1020 nM; in that of `Oc1cc(NC[C@H]2CCC[C@@H]2NCc2cc(Br)cc(Br)c2)nc2ccccc12`, 678 nM; in that of `CCC(C)(C)n1c(C)cc2c3c(N)nc(N)nc3ccc21`, 3.2 nM.
Regarding `c1cc(-c2nc3ccccc3[nH]2)nc(-c2nc3ccccc3[nH]2)c1`, the XC50 amounted to 1120 nM.
With `CCOc1cc2c(cc1S(=O)(=O)c1ccc(COc3ccc(C(F)(F)F)cc3)cc1)CCN(C)CC2` the figure was 1020 nM.
In the case of `Nc1nc(N)c2c(ccc3c2ccn3Cc2cccc(F)c2)n1` it was 3.2 nM; in that of `Cc1cc(C)c(CC(C)NCC(O)c2cccc(C(F)(F)F)c2)c(C)c1` (stereo unspecified), 568 nM; in that of `O=C(NCC1CC1)C1CCN(C(c2ccccc2)c2nc3ccccc3s2)CC1` (stereo unspecified), 1020 nM.
As to `Cn1cnc(CCNC(=O)c2cccc(-c3cccc(-c4nc5cc(C(F)(F)F)ccc5[nH]4)c3)c2)c1`, the XC50 is 700 nM.
Turning to `O=C(NCc1ccccc1F)c1ccc(N2CCC(NCc3cccc(-n4cccn4)c3)CC2)cc1`, the XC50 amounted to 1730 nM.
In the case of `CC1CN(c2nc(NCCc3ccc(O)cc3)nc(NCc3ccccc3-c3ccc(C(F)(F)F)cc3)n2)CC(C)N1` (stereo unspecified) it was 529 nM; in that of `CN1CCC(C(=O)Nc2ccc(-c3ccc(-c4nc5cc(C(F)(F)F)ccc5[nH]4)s3)cc2)CC1`, 987 nM; in that of `Cc1cccc2nc(-c3ccc(-c4ccc(CN5CCCC(N)C5)cc4)cc3)[nH]c12` (stereo unspecified), 350 nM.
With `c1ccc2c(C3CCN(CCCCOc4ccc5c(c4)CCN(C4CCC4)CC5)CC3)c[nH]c2c1` the figure was 705 nM.
In the case of `O=C(Nc1cccc(-c2cccc(-c3nc4ccccc4[nH]3)c2)c1)Nc1ccc(F)c(F)c1F` it was 55.1 nM; in that of `Cc1nc(N)nc(N)c1CCCOc1ccccc1Cl`, 224 nM.
Regarding `CN1CCc2ccc(NC(=O)Nc3ccc(-c4ccccc4)cc3)cc2C1`, the XC50 was found to be 511 nM.
With `CS(=O)(=O)c1ccc(CCNCc2ccc(-c3ccc(CNC4Cc5ccccc5C4)cc3)nc2)cc1` the figure was 757 nM; with `COc1cc2nc(Nc3ccc(Oc4ccccc4)cc3)nc(Nc3ccc(Oc4ccccc4)cc3)c2cc1OC`, 934 nM; with `CN(C)CCOc1ccc(-c2cc(-c3ccc(Cl)c(O)c3)c(-c3ccncc3)[nH]2)cc1`, 580 nM.
For `Cc1cc(NCC2CCN(CC3CCCCC3)C2)nc(Nc2ccc(Cl)cc2)n1` (stereo unspecified), the XC50 turned out to be 739 nM.
With `CCOc1ccc(C(C)NC(=O)c2ccc(OC)c(Br)c2)cc1OCC` (stereo unspecified) the figure was 706 nM.
In the case of `Cc1ccccc1C1CCN(C2CCC(NC(=O)c3ccc(-c4cccc(C(F)(F)F)c4)o3)CC2)CC1` (stereo unspecified) it was 346 nM; in that of `Cc1ccc(NC(=S)NC2CCN(CCCCCNC(=O)/C=C/c3ccc(Cl)c(Cl)c3)CC2)cc1Cl`, 992 nM; in that of `CCCCOC(=O)c1ccc(NC(=O)Nc2ccc(Cn3ncc(N4CCCNCC4)c(Cl)c3=O)cc2)cc1`, 739 nM.
In the case of `O=C(NC1CC1)c1ccc(N2CCC(Cc3ccccc3)CC2)nc1` it was 761 nM.
`O=C(NCCCN1CCC(NC(=O)c2ccc(-c3cccnc3)cc2)CC1)c1ccc(Cl)c(Cl)c1` showed an XC50 of 854 nM.
In the case of `CS(=O)(=O)CCCNCc1ccc(-c2cc3c(Nc4ccc(OCc5ccccc5)cc4)ncnc3cn2)o1` it was 650 nM.
Take `O=C(c1cc(C(=O)NC2CCCCC2)c(=O)n(C2CCCCC2)c1)c1cc(F)ccc1O`: the XC50 amounted to 627 nM.
With `COc1ccc2nc(-c3ccccc3)cc(NCCN(C)C)c2c1`, the XC50 turned out to be 731 nM.
With `COc1ccc(CN2CCC(N3CC(c4ccccc4)(c4ccccc4)OCC3=O)C2)c(O)c1` (stereo unspecified) the figure was 931 nM; with `COCc1cc(C)nc2sc(C(=O)Nc3cc(C(C)(C)C)ccc3O)c(N)c12`, 714 nM; with `Cc1cc(C(=O)OCC(=O)Nc2c(C)n(C)n(-c3ccccc3)c2=O)c(C)n1-c1ccc(F)cc1`, 53.9 nM.
With `CCc1c(CCNCCCCCCNCCc2ccc(Br)cc2)ccc(O)c1O` the figure was 903 nM; with `CCCCNc1nccc2ccc(-c3ccncc3)cc12`, 775 nM.
`COc1ccc2ccccc2c1CNCC1CCN(CC2CCCCC2)CC1` came in with an XC50 of 761 nM.
For `Cc1ccc2[nH]cc(/C=C/C(=O)NC3CCC(CCN4CCc5ccc(C#N)cc5CC4)CC3)c2c1` (stereo unspecified), the XC50 worked out at 916 nM.
In the case of `CCOc1cc(Cc2cnc(N)nc2N)cc(Br)c1OC` it was 1440 nM; in that of `Oc1ccc(CN2Cc3ccccc3OC3(CCN(Cc4c[nH]c5cnccc45)CC3)C2)cc1`, 1170 nM; in that of `Cn1nccc1C(=O)NCCNCc1ccc(-c2ccc(-c3nc4ccccc4[nH]3)s2)cc1`, 560 nM.
In the case of `CCn1cc(C(=O)O)c(=O)c2cc(F)c(N3CCN(S(=O)(=O)c4ccc(N)cc4)CC3)cc21` it was 922 nM.
On to `CCCCN1Cc2c(n(CC(=O)Nc3ccccc3)c3cc(-c4ccccc4)nn3c2=O)C1=O`, for which the XC50 came to 811 nM.
With `COc1ccccc1CCC(C)(C)NC(=O)CC(CCc1ccccc1)Nc1ccc(C#N)c2ccccc12` (stereo unspecified) the figure was 919 nM.
In the case of `Cc1cc(NC2CCCC2)nc(Nc2ccc(F)cc2)n1` it was 471 nM; in that of `O=C(N[C@H]1CCN(Cc2ccc(OCCN3CCNCC3)c(Br)c2)C1)c1ccc(Cl)c(Cl)c1`, 484 nM.
Consider `NC(Cc1cccc(I)c1)C(=O)NCC1CCCO1` (stereo unspecified), for which the XC50 was determined as 895 nM.
With `COc1cc2nc(N3CCC(CNC(=O)c4ccc(-c5ccccc5)cc4)CC3)nc(N)c2cc1OC` the figure was 574 nM.
With `CCCc1cc(NCc2ccncc2)nc(Nc2ccc(F)cc2)n1` the figure was 1120 nM; with `Cc1cccc2nc(-c3cccc(-c4cccc(NC(=O)c5ccc(=O)[nH]n5)c4)c3)[nH]c12`, 789 nM.
The compound `O=S(=O)(NCCN1CCCC1)c1ccc(-c2ccc(CN3Cc4ccccc4C3)cc2)s1` showed an XC50 of 930 nM.
In the case of `COc1ccc(NC(=O)N2CCc3ccc(OCCN(C(C)C)C(C)C)cc32)cc1C(F)(F)F` it was 969 nM.
Regarding `COC(=O)c1cccc(CNCc2ccc(-c3ccc(-c4nc5cccc(C)c5[nH]4)s3)cc2)c1`, the XC50 worked out at 402 nM.
`c1ccc2c(CNc3nc(NCC4CCCCC4)nc4[nH]cnc34)cccc2c1` had an XC50 of 888 nM.
`CN(C)CCNCc1ccc(-c2ccc3c(Nc4ccc(Oc5ccccc5)cc4)ccnc3c2)o1` gave an XC50 of 280 nM.
As for `CCC(C)(C)NC(=O)C(c1cccc(OC)c1)N(C(=O)CNC(=O)c1cccs1)c1ccc2c(c1)OCCO2` (stereo unspecified), the XC50 was determined as 828 nM.
With `Cc1c(CNCCCNc2nc3ccncc3[nH]2)sc(Br)c1Br` the figure was 1040 nM; with `CCOc1ncccc1CN1CCC(N2CCc3cc(NC(=O)c4cc(C)on4)ccc32)C1` (stereo unspecified), 312 nM.
In turn, `COc1ccc(C(=O)N2CCC3(CC2)C(=O)N(CC(=O)NC2CCCCC2)CN3c2ccccc2)c(OC)c1` had an XC50 of 224 nM.
With `CCOC(=O)c1cccc(NC(=O)Nc2cccc(-c3ncc(OCCCN)c4c3nc(-c3nonc3N)n4CC)c2)c1`, the XC50 stood at 894 nM.
In the case of `Cc1cccc(C)c1CNc1nc(N2CCOCC2)cc2c(C)c(C)[nH]c12` it was 1240 nM; in that of `O=C(CCn1cncn1)N1CCCC(c2[nH]c3ccccc3c2-c2ccncc2)C1` (stereo unspecified), 800 nM.
Take `CS(=O)(=O)Cc1ccc(Nc2nccc(-c3c(-c4cccc(NC(=O)C5CCCCC5)c4)nn4ncccc34)n2)cc1`: the XC50 turned out to be 201 nM.
`COc1ccc(NC(=O)c2ccc(Br)c(C)c2)cc1N1CCN(CCCCc2ccccc2)CC1` gave an XC50 of 817 nM.
With `COc1ccc(CNC2Cc3ccccc3C2)cc1-c1ccc(S(=O)(=O)NCc2cccnc2)s1` the figure was 1110 nM.
In the case of `COc1cccc2cc(C(=O)N[C@@H](CC(C)C)C(=O)N[C@H](/C=N/N(C)C(=O)OC(C)(C)C)CC(=O)OC(C)(C)C)oc12` it was 654 nM; in that of `COc1cc(Nc2ncnc3cc(OC)c(OC)cc23)cc([N+](=O)[O-])c1`, 810 nM; in that of `O=S(=O)(c1ccc(OCc2ccc(Cl)cc2)cc1)c1cc2c(cc1OCc1ccccc1)CCN(CC1CC1)CC2`, 1110 nM.
Take `C=CCc1c(C(=O)NCC23CC4CC(CC(C4)C2)C3)nc2ccccc2c1O`: the XC50 was determined as 1030 nM.
With `CN1CCCN(Cc2cccc(-c3cccc(NC(=O)c4cccc(Cl)c4)c3)c2)CC1` the figure was 889 nM; with `CCCC(=O)NC(c1ccc(C(C)C)cc1)c1ccc2cccnc2c1O` (stereo unspecified), 934 nM; with `COc1cccc(C2(NC[C@@H](O)[C@H](Cc3ccccc3)NC(=O)c3ccccc3)CCCCC2)c1`, 729 nM.
In the case of `COC(=O)c1ccc2c(c1)nc(Nc1cccc(F)c1)n2CC(O)c1ccccn1` (stereo unspecified) it was 728 nM; in that of `O=C(/C=C/c1ccc(Cl)c(Cl)c1)Nc1cccc(CN2CCC(c3c[nH]c4ccccc34)CC2)c1`, 670 nM; in that of `O=C(Nc1cccc(C(F)(F)F)c1)c1ccc(S(=O)(=O)NCC2CCCN2CC2CCCCC2)cc1` (stereo unspecified), 751 nM.
Compound `Cc1cnc(NC(=O)c2cn(-c3ccccc3)nc2-c2cccs2)s1` showed an XC50 of 945 nM.
The compound `CCOC(=O)c1cn(CC)c2cc(N3CCCCC3)c(F)cc2c1=O` came in with an XC50 of 125 nM.
In the case of `CC(C)CNCc1ccc(-c2cccc(CN(CCN(C)C)C(=O)CCC3CCCC3)c2)cc1` it was 809 nM.
In the case of `O=S(=O)(NC1CCN(c2ccnc3cc(Cl)ccc23)C1)c1cccs1` (stereo unspecified) it was 697 nM; in that of `CN(C)CCNCc1cccc(-c2cccc(-c3nc4ccccc4[nH]3)c2)c1`, 766 nM.
In the case of `Clc1ccc(/N=C(/NCCCCCCCN/C(=N\c2ccc(Cl)cc2)Nc2ccc(Cl)cc2)Nc2ccc(Cl)cc2)cc1` it was 321 nM; in that of `COc1ccc2ncc(C#N)c(CCN3C4CCC3CC(NCc3ccc5c(n3)NC(=O)CS5)C4)c2c1` (stereo unspecified), 810 nM.
Turning to `COc1ccc(-c2cnc(N)c(-c3ccc(C(N)=O)cc3)c2)cc1OC`, the XC50 stood at 897 nM.
`COc1ccc(CNC2CCN(C)CC2)cc1-c1ccc(S(=O)(=O)NCC2CCCO2)s1` (stereo unspecified): the XC50 came out at 800 nM.
